Source: US20250206738A1, “WRN INHIBITORS” (Nimbus Wadjet, Inc., priority 2023, published 2025)

Key:
[1] = biological target: T1, human Werner helicase (WRN, Uniprot Q14191, amino acids 517-1235 with L1074F point mutation; WRN-BV08) (Homo sapiens, UniProt Q14191, L1074F); test: WRN (BV08) ADP-Glo assay; format: biochemical; conditions: WRN-BV08 (aa 517-1235, L1074F); read-out: ADP-Glo_hWRN_IC50
T1 construct: Uniprot Q14191, amino acids 517-1235 with L1074F point mutation; 8xHis (C, cleaved yes); TEV cleavage site (ENLYFQG) (C, cleaved yes); made in house; host or cells: Sf9 insect cells (baculovirus, pFastBac)
T1 sequence (Q14191 with tags, fused parts or gaps L1074F): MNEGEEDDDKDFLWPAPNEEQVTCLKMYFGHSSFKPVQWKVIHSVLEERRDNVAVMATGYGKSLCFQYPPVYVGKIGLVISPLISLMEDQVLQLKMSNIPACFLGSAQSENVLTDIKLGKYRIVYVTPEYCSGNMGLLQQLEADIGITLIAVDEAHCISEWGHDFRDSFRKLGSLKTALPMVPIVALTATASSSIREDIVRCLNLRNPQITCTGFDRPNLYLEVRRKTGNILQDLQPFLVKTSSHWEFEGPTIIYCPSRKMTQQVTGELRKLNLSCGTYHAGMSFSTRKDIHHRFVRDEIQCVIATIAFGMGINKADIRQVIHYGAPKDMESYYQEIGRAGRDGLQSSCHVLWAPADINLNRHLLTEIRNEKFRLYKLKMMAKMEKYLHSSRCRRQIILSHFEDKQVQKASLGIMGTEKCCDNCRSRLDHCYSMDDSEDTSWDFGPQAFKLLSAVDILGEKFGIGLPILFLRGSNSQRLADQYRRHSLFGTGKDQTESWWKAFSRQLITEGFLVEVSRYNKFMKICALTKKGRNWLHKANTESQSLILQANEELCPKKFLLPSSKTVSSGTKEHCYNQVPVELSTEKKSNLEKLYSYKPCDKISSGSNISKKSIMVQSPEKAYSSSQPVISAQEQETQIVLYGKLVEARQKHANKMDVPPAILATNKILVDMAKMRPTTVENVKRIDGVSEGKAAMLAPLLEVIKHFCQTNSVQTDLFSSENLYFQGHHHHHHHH
Outline: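 ADP formed by untagged WRN helicase fragment (aa 517-1235, L1074F; 0.15 nM final) on 0.1 nM DNA duplex with […], 60 min at 25 °C after 15 min compound preincubation, pH 7.5 Bicine buffer. Luminescent ADP-Glo readout; IC50 from 4-parameter fit of % inhibition.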

[2] = test system: p21 induction in HCT 116 cells; test: p21 induction in cells (In-Cell Western, p21/GAPDH ratio); format: cell-based; conditions: Homo sapiens, HCT-116, 24 h, 24 h compound incubation, read-out: P21_EC50
Outline: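 p21 and GAPDH signals quantified by In-Cell Western after 24 h compound exposure of HCT 116 cells (11 concentrations, 2-fold steps, usual top 10 μM). Percent activation from p21/GAPDH ratio relative to DMSO (low) and internal WRN inhibitor (high) controls; curve fit gave EC50.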

SMILES | IC50 [1] | EC50 [2]
CCc1c(N2CCN(C(=O)c3ncnc(C)c3O)[C@H]3CC[C@@H]32)c(=O)c2c(nnn2C2CC2)n1CC(=O)NC12CC(C3CC3)(C1)C2 [I-245, 2-(1-cyclopropyl-5-ethyl-6-((1S,6S)-5-(5-hydroxy-6-methylpyrimidine-4-carbonyl)-2,5-diazabicyclo[4.2.0]octan-2-yl)-7-oxo-1,7-dihydro-4H-[1,2,3]triazolo[4,5-b]pyridin-4-yl)-N-(3-cyclopropylbicyclo[1.1.1]pentan-1-yl)acetamide] | 0.1 to 0.5 µM | 2 to 5 µM
CCc1c(N2CCN(C(=O)c3cnn(C)c3)CC2)c(=O)n2nc(-c3ccnc(OC)c3)nc2n1CC(=O)NC1Cc2ccc(F)cc2C1 (centres unmarked) [I-246, 2-(5-ethyl-2-(2-methoxypyridin-4-yl)-6-(4-(1-methyl-1H-pyrazole-4-carbonyl)piperazin-1-yl)-7-oxo-[1,2,4]triazolo[1,5-a]pyrimidin-4(7H)-yl)-N-(5-fluoro-2,3-dihydro-1H-inden-2-yl)acetamide] | 0.1 to 0.5 µM | > 5 µM
CCc1c(N2CCN(C(=O)c3cnn(C)c3)CC2)c(=O)n2nc(-c3ccnc(OC)c3)nc2n1CC(=O)NC1CC2(C1)CC2F (centres unmarked) [I-247, 2-(5-ethyl-2-(2-methoxypyridin-4-yl)-6-(4-(1-methyl-1H-pyrazole-4-carbonyl)piperazin-1-yl)-7-oxo-[1,2,4]triazolo[1,5-a]pyrimidin-4(7H)-yl)-N-(1-fluorospiro[2.3]hexan-5-yl)acetamide] | 0.1 to 0.5 µM | > 5 µM
CCc1c(N2CCN(C(=O)c3cnn(C)c3)CC2)c(=O)n2nc(C3=CCOCC3)nc2n1CC(=O)NC1Cc2ccc(F)cc2C1 (centres unmarked) [I-248, 2-(2-(3,6-dihydro-2H-pyran-4-yl)-5-ethyl-6-(4-(1-methyl-1H-pyrazole-4-carbonyl)piperazin-1-yl)-7-oxo-[1,2,4]triazolo[1,5-a]pyrimidin-4(7H)-yl)-N-(5-fluoro-2,3-dihydro-1H-inden-2-yl)acetamide] | 0.1 to 0.5 µM | > 5 µM
CCc1c(N2CCN(C(=O)c3cnn(C)c3)CC2)c(=O)n2nc(C3=CCOCC3)nc2n1CC(=O)NC1CC2(C1)CC2F (centres unmarked) [I-249, 2-(2-(3,6-dihydro-2H-pyran-4-yl)-5-ethyl-6-(4-(1-methyl-1H-pyrazole-4-carbonyl)piperazin-1-yl)-7-oxo-[1,2,4]triazolo[1,5-a]pyrimidin-4(7H)-yl)-N-(1-fluorospiro[2.3]hexan-5-yl)acetamide] | 0.1 to 0.5 µM | > 5 µM
CCc1c(N2CCN(C(=O)c3cnn(C)c3)CC2)c(=O)n2nc(-c3ccnc(OC)c3)nc2n1CC(=O)NC1(C(O)c2ccccc2)CC1 (centres unmarked) [I-250, 2-(5-ethyl-2-(2-methoxypyridin-4-yl)-6-(4-(1-methyl-1H-pyrazole-4-carbonyl)piperazin-1-yl)-7-oxo-[1,2,4]triazolo[1,5-a]pyrimidin-4(7H)-yl)-N-(1-(hydroxy(phenyl)methyl)cyclopropyl)acetamide] | 0.1 to 0.5 µM | > 5 µM

Other lines, results leading:

IC50 [1] | EC50 [2] | SMILES
0.05 to 0.1 µM | > 5 µM | CCc1c(N2CCN(C(=O)c3c(OC)ncc(C)c3O)CC2)c(=O)c2nc(N(C)C)cnc2n1CC(=O)NC12CC(C(F)(F)F)(C1)C2 [I-240, 2-(2-(dimethylamino)-6-ethyl-7-(4-(4-hydroxy-2-methoxy-5-methylnicotinoyl)piperazin-1-yl)-8-oxopyrido[2,3-b]pyrazin-5(8H)-yl)-N-(3-(trifluoromethyl)bicyclo[1.1.1]pentan-1-yl)acetamide]
0.1 to 0.5 µM | > 5 µM | CCc1c(N2CCN(C(=O)c3c(O)ccc4ncoc34)CC2)c(=O)n2nc(-c3ccnc(OC)c3)nc2n1CC(=O)NC12CC(OC)(C1)C2 [I-241, 2-(5-ethyl-6-(4-(6-hydroxybenzo[d]oxazole-7-carbonyl)piperazin-1-yl)-2-(2-methoxypyridin-4-yl)-7-oxo-[1,2,4]triazolo[1,5-a]pyrimidin-4(7H)-yl)-N-(3-methoxybicyclo[1.1.1]pentan-1-yl)acetamide]
0.1 to 0.5 µM | > 5 µM | CCc1c(N2CCN(C(=O)c3ncnc(C)c3O)CC2)c(=O)n2nc(-c3ccnc(OC)c3)nc2n1CC(=O)N[C@H]1CC[C@H](C(F)(F)F)CC1 [I-242, 2-(5-ethyl-6-(4-(5-hydroxy-6-methylpyrimidine-4-carbonyl)piperazin-1-yl)-2-(2-methoxypyridin-4-yl)-7-oxo-[1,2,4]triazolo[1,5-a]pyrimidin-4(7H)-yl)-N-((1r,4r)-4-(trifluoromethyl)cyclohexyl)acetamide]
0.1 to 0.5 µM | > 5 µM | CCc1c(N2CCN(C(=O)c3c(O)ccc4ncoc34)CC2)c(=O)n2ncnc2n1CC(=O)NC12CC(C3CCC3)(C1)C2 [I-243, N-(3-cyclobutylbicyclo[1.1.1]pentan-1-yl)-2-(5-ethyl-6-(4-(6-hydroxybenzo[d]oxazole-7-carbonyl)piperazin-1-yl)-7-oxo-[1,2,4]triazolo[1,5-a]pyrimidin-4(7H)-yl)acetamide]
